Laboratory results: patent US12350337B2, “Polymeric drug delivery conjugates and methods of making and using thereof” (UNIVERSITY OF UTAH RESEARCH FOUNDATION, priority 2019, dated 2025)
Where no end group is shown, it is not given here. [ ]: non-standard residue; d: D form.

What was measured:
4T1 tumors [1] = assay: In vivo tumoral PD-L1 expression and tumor-infiltrating lymphocytes after KT-1 followed by PD-L1 blockade; set-up: species or system BALB/c mice; details: for tumoral PD-L1 expression: KT-1 Days 7 and 14, PD-L1 blockade Day 15, two days post blockade
Description: (§1) (A) Schematic illustration of inhibiting PD-L1 recycling by MPPA crosslinking. (B) Lysosome colocalization with α-PD-L1-Cy5 or Cy3-labeled MPPA (P-(PPA)14-Cy3) after 3 h treatments at 37° C. Blue: nuclei; Red: Cy3/Cy5; Green: lysosome. (C) Whole cell PD-L1 expression with or without lysosome hydrolysis inhibition by E-64. 4T1 cells were treated with α-PD-L1, PPA, or MPPA for 3 h in the absence (−) or presence (+) of E-64 cysteine protease inhibitor. Afterward, cells were further incubated in cell culture medium for another 24 h, prior to PD-L1 quantification. (D) Time-dependent recovery of surface PD-L1. […] (E) In vivo tumoral PD-L1 expression, and (F) representative flow cytometry analysis plots of CD3+CD8+CTLs and CD4+ Foxp3+ Tregs after KT-1 and MPPA combination treatment as indicated by arrows in (E). n=3 in (C) and (D), and n=5 in (E) and (F), from a representative experiment from two independent experiments.
To validate the PD-L1 depletion in vivo, mice bearing 4T1-tumor were treated with α-PD-L1, PPA, or MPPA on Day 15, following two doses of KT-1 treatment on Day 7 and 14 (FIG. 7E). Tumoral PD-L1 expression and tumor-infiltrating lymphocytes were studied two days post PD-L1 blockade.

4T1 tumors [2] = assay: 4T1 tumor therapy with PPA, MPPA and KT-1 combinations; format: in vivo, BALB/c mice
Source text: (B) Individual tumor volume, (C) body weight change, and (D) survival rate in 4T1-tumor bearing BALB/c mice over time after different treatments (n=5-10). (E) Individual tumor volume measurement after naive control mice or KT-1→MPPA treated CR mice in (D) were subcutaneously re-challenged with 4T1 or CT26 cells (n=5). (F) The representative scatter plots of the percentage of tumor cell-reactive T cells (IFN-γ+CD8+) among PBMCs from KT-1→MPPA treated CR mice in (D) against 4T1 cells or CT26 cells (n=5). (G) Mice survival curve after re-challenge by i.v. injection of 4T1 cells after initial KT-1→MPPA treatment (n=5). (H) CD44+CD62L-memory effector CD8+ T cells in spleen after 4T1 cell i.v. re-challenge (n=5).

PD-L1 [3] = biological target: T1, PD-L1 (Mus musculus, UniProt Q9EP73); assay: Whole cell PD-L1 expression with or without E-64; format: cell-based, murine
T1 construct: Specificity of PPA towards PD-L1 on 4T1 cells; endogenous in cells; host or cells: 4T1 cells
Description: as §1
(§2) Together, these findings established the polymer-facilitated crosslinking of surface PD-L1 as a potential therapeutic strategy to produce prolonged elimination of PD-L1, rather than the transient blocking afforded by standard anti-PD-L1 antibodies.

CT26 tumors = assay: Subcutaneous CT26 colon carcinoma model; format: in vivo, BALB/c mice
Source text: Blue: cell nuclei; Green: EPI; Red: CRT.
Moreover, KT-1→MPPA further improved the anti-tumor efficacy, and outperformed KT-1→α-PD-L1 (20% complete tumor regression), leading to complete regression of established tumors in 60% of animals (FIG. 15A).

4T1 cells [4] = assay: Lysosome colocalization (confocal); format: cell-based, murine; details: 3 h at 37° C.
Description: as §1, §2

[5] = system: LLC-1 Lewis lung carcinoma cells; assay: Metastatic LLC-1 Lewis lung carcinoma model
Description: (I) Survival rate of mice after indicated treatments (n=5). C57BL/6 mice were intravenously inoculated with 2×10^5 LLC-1 Lewis lung carcinoma cells on day 0. Then mice were treated as described in (A). (J) The fold increases in the percentage tumor cell-reactive T cells (IFN-γ+CD8+) among PBMCs from mice in (I) on Day 25 against LLC-1 cells. (K) CD44+CD62L-memory effector CD8+ T cells in spleen from mice in (I) on Day 25. (L) Tumor burden in lungs from mice in (I) on Day 25, depicted as lung weight and hematoxylin-eosin histology analysis of lung lobe sections.* P<0.05, n.s, not significant, one-way ANOVA with Tukey's multiple comparison test.

4T1 cells [6] = assay: Internalization of surface bound P-(PPA)x-Cy3; format: cell-based, murine; details: 37° C., compared with low-valence P-(PPA)1.3-Cy3 and P-Cy3
Description: Then surface PD-L1 along with receptor-bound conjugates were removed by proteinase-K digestion (0.4 mg/mL, 20 min, 37° C.), and flow cytometry was used to measure the internalized conjugates. Experiments were conducted in triplicate.
as §2

4T1 tumors [7] = assay: In vivo ICD induction and immune cell analysis after two doses; set-up: species or system BALB/c mice; details: Day 15
Description: (§3) Fluorescence intensities were normalized to the same scale. Black circles indicate the tumor. (B) In vivo tumor cell uptake of EPI after the mice were treated with either free EPI or KT-1 (10 mg/kg EPI equivalence) at 1, 4, 7 days post injection. Data represent n=5 independently analyzed mice/group. […] Blue: cell nuclei; Green: EPI; Red: CRT. […] Data are represented as box plots (whiskers, 5th to 95th percentile). n=4 for saline and EPI treatments, and n=6 for KT-1 treatment, from a representative experiment from two independent experiments. * P<0.05 by student's t-test.
Having shown tumor-targeted delivery of KT-1, KT-1's impact on inducing ICD that implicates calreticulin (CRT) expression and high-mobility group box 1 (HMGB1) release was examined. CRT exposed on the surfaces of immunogenically dying tumor cells sends dendritic cells (DCs) an “eat me” signal to facilitate phagocytosis by antigen-presenting cells (APCs), while released HMGB1 functions as the “danger” signal and stimulates optimal antigen presentation to T cells. […] In FIG. 3D-E, BALB/c mice bearing non-immunogenic 4T1 tumors, were given two intravenous doses (on Days 7 and 14 after tumor implantation) of treatments with saline, EPI or KT-1 (first EPI equivalence dose 10 mg/kg followed by second dose 5 mg/kg).
This could be the result of efficiently triggering ICD-associated signals in tumors. […]

4T1 tumors [8] = assay: 4T1 tumor growth, survival and endpoint tumor immune analysis (EPI, KT-1, α-CD8, α-PD-L1 combinations); format: in vivo, BALB/c mice
4T1 tumor = system: 4T1 tumor; set-up: species or system BALB/c mice; details: mouse, in vivo, iv
Description: as §3
KT-1, a degradable diblock HPMA copolymer-EPI conjugate with narrow polydispersity, was synthesized via one step reversible addition-fragmentation chain transfer (RAFT) polymerization and characterized in FIG. 2B and the techniques provided in Yang et al., J. Controlled Release, 218 (2015) 36-44. KT-1 has long-lasting retention in tumors. […] In contrast, KT-1-Cy5 profoundly accumulated at tumor site, which peaked at 24 h and lasted for at least 196 h.

PD-L1 [9] = biological target: T1, PD-L1; details: cited from earlier work
PD-L1 [10] = biological target: T1, PD-L1; assay: PPA specificity to PD-L1: inhibition of Cy5-labeled anti-PD-L1 antibody binding on 4T1 cells; set-up: species or system murine; details: 0.2 mM, pretreatment 1 h, co-incubation 1 h, 4° C.
Description: (A) The PD-1/PD-L1 interaction mediated by PPA from immune escape to cancer immunotherapy. (B) Specificity of PPA towards PD-L1 on 4T1 cells. Negative control: Cy5-labeled anti-CD20 mAb rituximab (RTX) incubation with 4T1 cells at 4° C. for 1 h; Positive control: Cy5-labeled anti-PD-L1 antibody incubation with 4T1 cells at 4° C. for 1 h; PPA: 0.2 mM PPA pretreatment for 1 h and co-incubation with Cy5-labeled anti-PD-L1 antibody for 1 h 4° C. […] (C) Synthesis scheme and characterization of Cy3-labeled HPMA copolymer-PPA conjugates with different PPA valences.
PD-L1 peptide antagonist (PPA), with the amino acid sequence shown in FIG. 8A, was reported to bind PD-L1 with high affinity, and further confirmed in FIG. 8B. To achieve multimeric PD-L1 crosslinking, PPA was grafted onto HPMA copolymer to generate the multivalent polymer-PPA conjugates. By varying the ratio of the reaction components, a panel of conjugates was prepared with different valences for subsequent evaluation. Three conjugates with Cy3 labeled backbone were prepared: P-(PPA)14-Cy3, P-(PPA)4.3-Cy3, P-(PPA)1.3-Cy3, with the subscript denotes the valence. Additionally, unlabeled MPPA for receptor depletion studies was prepared with degradable backbone.

[11] = KT-1 Days 7 and 14, PD-L1 blockade Day 15
[12] = 3 weekly treatments, EPI equivalence 10 mg/kg then two doses 5 mg/kg

T1 sequence (Q9EP73 19-290): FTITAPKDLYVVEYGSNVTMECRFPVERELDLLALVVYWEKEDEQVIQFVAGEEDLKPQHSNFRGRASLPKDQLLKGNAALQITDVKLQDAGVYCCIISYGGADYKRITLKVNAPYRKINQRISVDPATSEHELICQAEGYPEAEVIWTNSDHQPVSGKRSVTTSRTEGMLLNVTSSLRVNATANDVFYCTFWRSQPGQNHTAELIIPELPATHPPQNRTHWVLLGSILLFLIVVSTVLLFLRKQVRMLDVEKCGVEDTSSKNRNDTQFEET

MPPA: backbone-degradable HPMA copolymer grafted with multiple copies of PD-L1 peptide antagonist PPA, valence 12.6 (CNYSKPTDRQYHF)
tumor infiltration of CTLs (4T1 tumors [1]; [11]): did not further enhance tumor infiltration of CTLs | tumoral PD-L1 expression (4T1 tumors [1]): further reduction in PD-L1 expression | tumor growth / therapeutic efficacy (4T1 tumors [2]): slightly better therapeutic efficacy than PPA | PD-L1 depletion (PD-L1 [3]; 24 h post cell binding, without E-64): depleted PD-L1 to a higher degree than α-PD-L1 | PD-L1 depletion in the presence of E-64 (PD-L1 [3]; E-64 cysteine protease inhibitor present): alleviated MPPA-triggered PD-L1 depletion | tumor growth (CT26 tumors; CT26, KT-1 days 7, 14, 21, anti-PD-L1 therapy days 15, 22): marginal effect in inhibiting tumor growth | PD-L1 expression in CT26 tumors (CT26 tumors; Day 17, after KT-1 Days 7 and 14, one dose Day 15): more profound decrease in PD-L1 expression than α-PD-L1 | lysosome colocalization (4T1 cells [4]): substantial MPPA internalized into lysosome | median survival ([5]; C57BL/6 mice, i.v. LLC-1 cells): 28 days | reactive IFN-γ+CD8+ T cells in PBMCs and CD8+CD62L-CD44+ effector memory T cells in spleen ([5]; Day 25): none of the treatments with saline, α-PD-L1, or MPPA increased the number

P-(PPA)14-Cy3 ([dN][dY][dS][dK][dP][dT][dD][dR][dQ][dY][dH][dF]; also: conjugated to (PPA)14 and Cy3, places not given here)
internalization rate (4T1 cells [6]): accelerated internalization rates

P-(PPA)4.3-Cy3 ([dN][dY][dS][dK][dP][dT][dD][dR][dQ][dY][dH][dF]; also: conjugated to (PPA)4.3 and Cy3, places not given here)
internalization rate (4T1 cells [6]): accelerated internalization rates

COc1cccc2c1C(=O)c1c(O)c3c(c(O)c1C2=O)C[C@@](O)(C(=O)CO)C[C@@H]3O[C@H]1C[C@H](N)[C@@H](O)[C@H](C)O1 [EPI, Epirubicin]
frequency of CD11c+CD11b+Ly6c+CD86+ cells in tumor-draining lymph nodes (4T1 tumors [7]): failed to generate the subset of CD11c+CD11b+Ly6c+ DCs | animal survival (4T1 tumors [8]; [12]): limited effect | tumor growth (4T1 tumors [8]; [12]): limited effect on controlling tumor | tumor PD-L1 expression after chemotherapy (4T1 tumors [8]; endpoint of 3 weekly treatments): adaptively enriched

cyanine 5 [Cy5]
tumor retention (in words) (4T1 tumor): rapidly eliminated from the tumor and barely detectable after 2 h post-injection

NYSKPTDRQYHF [PPA]
Tregs in tumors (4T1 tumors [1]; [11]): depleted Tregs | tumor infiltration of CTLs (4T1 tumors [1]; [11]): did not further enhance tumor infiltration of CTLs | tumoral PD-L1 expression (4T1 tumors [1]): downregulated PD-L1 expression | tumor growth / therapeutic efficacy (4T1 tumors [2]): barely delayed tumor growth | binding to PD-L1 (reported) (PD-L1 [9]): high affinity | cell surface binding of anti-PD-L1 antibody after pretreatment (PD-L1 [10]): significantly inhibited
